Assay results reported in PubChem BioAssay AID2060912 (Molecular Pharmacology Branch, DTP, NCI, 2025).
pIC50: −log10 of the molar value.

Test system: HUVEC/MSC spheroids viability
Experiment: Human HUVEC/MSC cell line growth inhibition [KRAS2];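 for viability, T/C: percent of DMSO vehicle control luminescence so 100% = untreated viability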
Settings: for pIC50: curve of first compound; for viability, T/C: stronger effect = lower value
Outline: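 Spheroids of pooled-donor HUVEC and hMSC (passage ≤5) without tumour cells were treated with KRAS-pathway inhibitors alone and combined with targeted agents. Top concentration was at or near clinical Cmax, or 10 microM when Cmax was unknown, descending in half-log steps.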

[1] = second compound 0.0316 µM, first compound 0.0316 µM
[2] = second compound 0.0316 µM, first compound 0.1 µM
[3] = second compound 0.0316 µM, first compound 0.316 µM
[4] = second compound 0.0316 µM, first compound 1 µM
[5] = second compound 0.0316 µM, first compound 3.16 µM
[6] = second compound 0.0316 µM, first compound 10 µM
[7] = second compound 0.1 µM, first compound 0.0316 µM
[8] = second compound 0.1 µM, first compound 0.1 µM
[9] = second compound 0.1 µM, first compound 0.316 µM
[10] = second compound 0.1 µM, first compound 1 µM
[11] = second compound 0.1 µM, first compound 3.16 µM
[12] = second compound 0.1 µM, first compound 10 µM
[13] = second compound 0.316 µM, first compound 0.0316 µM
[14] = second compound 0.316 µM, first compound 0.1 µM
[15] = second compound 0.316 µM, first compound 0.316 µM
[16] = second compound 0.316 µM, first compound 1 µM
[17] = second compound 0.316 µM, first compound 3.16 µM
[18] = second compound 0.316 µM, first compound 10 µM
[19] = second compound 1 µM, first compound 0.0316 µM
[20] = second compound 1 µM, first compound 0.1 µM
[21] = second compound 1 µM, first compound 0.316 µM
[22] = second compound 1 µM, first compound 1 µM
[23] = second compound 1 µM, first compound 3.16 µM
[24] = second compound 1 µM, first compound 10 µM
[25] = second compound 3.16 µM, first compound 0.0316 µM
[26] = second compound 3.16 µM, first compound 0.1 µM
[27] = second compound 3.16 µM, first compound 0.316 µM
[28] = second compound 3.16 µM, first compound 1 µM
[29] = second compound 3.16 µM, first compound 3.16 µM
[30] = second compound 3.16 µM, first compound 10 µM
[31] = second compound 10 µM, first compound 0.0316 µM
[32] = second compound 10 µM, first compound 0.1 µM
[33] = second compound 10 µM, first compound 0.316 µM
[34] = second compound 10 µM, first compound 1 µM
[35] = second compound 10 µM, first compound 3.16 µM
[36] = second compound 10 µM, first compound 10 µM

Q: With `COc1cc(Nc2ncc3c(n2)-c2ccc(Cl)cc2C(c2c(F)cccc2OC)=NC3)ccc1C(=O)O` + COc1cc2nc(C)nc(NC(C)c3cc(N)cc(C(F)(F)F)c3)c2cc1OC1CCOC1 as the molecule, how does the pIC50 (second compound 0.0316 µM) read?
A: < 5.00

Q: And the pIC50 (second compound 0.1 µM)?
A: < 5.00

Q: What about the pIC50 (second compound 0.316 µM) of the same molecule?
A: 5.03

Q: What about the pIC50 (second compound 1 µM) of the same molecule?
A: < 5.00

Q: And the pIC50 (second compound 3.16 µM)?
A: 5.02

Q: And the pIC50 (second compound 10 µM)?
A: 5.07

Q: What about the viability, T/C [1] of the same molecule?
A: 79.5%

Q: And the viability, T/C [2]?
A: 94.3%

Q: And the viability, T/C [3]?
A: 109%

Q: And the viability, T/C [4]?
A: 82.5%

Q: And the viability, T/C [5]?
A: 111%

Q: What about the viability, T/C [6] of the same molecule?
A: 61.6%

Q: What about the viability, T/C [7] of the same molecule?
A: 95.5%

Q: What about the viability, T/C [8] of the same molecule?
A: 89.7%

Q: And the viability, T/C [9]?
A: 105%

Q: What about the viability, T/C [10] of the same molecule?
A: 85.8%

Q: And the viability, T/C [11]?
A: 97%

Q: What about the viability, T/C [12] of the same molecule?
A: 58.8%

Q: And the viability, T/C [13]?
A: 87.8%

Q: What about the viability, T/C [14] of the same molecule?
A: 97.1%

Q: What about the viability, T/C [15] of the same molecule?
A: 92.5%

Q: And the viability, T/C [16]?
A: 105%

Q: And the viability, T/C [17]?
A: 104%

Q: And the viability, T/C [18]?
A: 46.5%

Q: What about the viability, T/C [19] of the same molecule?
A: 86.9%

Q: And the viability, T/C [20]?
A: 89.5%

Q: And the viability, T/C [21]?
A: 96.8%

Q: What about the viability, T/C [22] of the same molecule?
A: 106%

Q: And the viability, T/C [23]?
A: 107%

Q: And the viability, T/C [24]?
A: 52.7%

Q: And the viability, T/C [25]?
A: 77.4%

Q: What about the viability, T/C [26] of the same molecule?
A: 94.8%

Q: And the viability, T/C [27]?
A: 102%

Q: And the viability, T/C [28]?
A: 77%

Q: What about the viability, T/C [29] of the same molecule?
A: 102%

Q: And the viability, T/C [30]?
A: 48.7%

Q: What about the viability, T/C [31] of the same molecule?
A: 62.5%

Q: And the viability, T/C [32]?
A: 85.8%

Q: And the viability, T/C [33]?
A: 72.5%

Q: And the viability, T/C [34]?
A: 84.9%

Q: And the viability, T/C [35]?
A: 74.9%

Q: What about the viability, T/C [36] of the same molecule?
A: 46.1%

Q: How did the pIC50 (second compound 0.0316 µM) turn out when `CC(C)NCC(C(=O)N1CCN(c2ncnc3c2C(C)CC3O)CC1)c1ccc(Cl)cc1` (stereo unspecified) + COc1cc2nc(C)nc(NC(C)c3cc(N)cc(C(F)(F)F)c3)c2cc1OC1CCOC1 was run?
A: 5.71

Q: And the pIC50 (second compound 0.1 µM)?
A: 5.80

Q: What about the pIC50 (second compound 0.316 µM) of the same molecule?
A: 5.68

Q: And the pIC50 (second compound 1 µM)?
A: 5.65

Q: What about the pIC50 (second compound 3.16 µM) of the same molecule?
A: 5.52

Q: And the pIC50 (second compound 10 µM)?
A: 6.00

Q: And the viability, T/C [1]?
A: 92.4%

Q: And the viability, T/C [2]?
A: 95.3%

Q: What about the viability, T/C [3] of the same molecule?
A: 77.1%

Q: And the viability, T/C [4]?
A: 52%

Q: What about the viability, T/C [5] of the same molecule?
A: 48%

Q: What about the viability, T/C [6] of the same molecule?
A: 49.5%

Q: What about the viability, T/C [7] of the same molecule?
A: 77.5%

Q: And the viability, T/C [8]?
A: 97.5%

Q: What about the viability, T/C [9] of the same molecule?
A: 77.5%

Q: And the viability, T/C [10]?
A: 53.4%

Q: What about the viability, T/C [11] of the same molecule?
A: 50%

Q: And the viability, T/C [12]?
A: 36.5%

Q: And the viability, T/C [13]?
A: 80.1%

Q: What about the viability, T/C [14] of the same molecule?
A: 102%

Q: What about the viability, T/C [15] of the same molecule?
A: 81.2%

Q: And the viability, T/C [16]?
A: 62.9%

Q: And the viability, T/C [17]?
A: 42.8%

Q: What about the viability, T/C [18] of the same molecule?
A: 40.4%

Q: And the viability, T/C [19]?
A: 85.1%

Q: And the viability, T/C [20]?
A: 104%

Q: And the viability, T/C [21]?
A: 88.5%

Q: What about the viability, T/C [22] of the same molecule?
A: 59.8%

Q: And the viability, T/C [23]?
A: 46.8%

Q: What about the viability, T/C [24] of the same molecule?
A: 44.1%

Q: And the viability, T/C [25]?
A: 74%

Q: What about the viability, T/C [26] of the same molecule?
A: 94.2%

Q: What about the viability, T/C [27] of the same molecule?
A: 76.9%

Q: And the viability, T/C [28]?
A: 61.8%

Q: And the viability, T/C [29]?
A: 52.9%

Q: What about the viability, T/C [30] of the same molecule?
A: 36.3%

Q: What about the viability, T/C [31] of the same molecule?
A: 58%

Q: And the viability, T/C [32]?
A: 71.1%

Q: And the viability, T/C [33]?
A: 75.8%

Q: And the viability, T/C [34]?
A: 49.9%

Q: And the viability, T/C [35]?
A: 42.5%

Q: And the viability, T/C [36]?
A: 33.4%

Q: How did the pIC50 (second compound 0.0316 µM) turn out when `CN(C)C/C=C/C(=O)Nc1cc2c(Nc3ccc(F)c(Cl)c3)ncnc2cc1O[C@H]1CCOC1` + COc1cc2nc(C)nc(NC(C)c3cc(N)cc(C(F)(F)F)c3)c2cc1OC1CCOC1 was run?
A: < 7.00

Q: What about the pIC50 (second compound 0.1 µM) of the same molecule?
A: < 7.00

Q: What about the pIC50 (second compound 0.316 µM) of the same molecule?
A: < 7.00

Q: And the pIC50 (second compound 1 µM)?
A: < 7.00

Q: And the pIC50 (second compound 3.16 µM)?
A: < 7.00

Q: And the pIC50 (second compound 10 µM)?
A: < 7.00

Q: What about the viability, T/C (second compound 0.0316 µM, first compound 0.000316 µM) of the same molecule?
A: 98.6%

Q: What about the viability, T/C (second compound 0.0316 µM, first compound 0.001 µM) of the same molecule?
A: 110%

Q: What about the viability, T/C (second compound 0.0316 µM, first compound 0.00316 µM) of the same molecule?
A: 104%

Q: And the viability, T/C (second compound 0.0316 µM, first compound 0.01 µM)?
A: 92.8%

Q: And the viability, T/C [1]?
A: 86.8%

Q: What about the viability, T/C [2] of the same molecule?
A: 107%

Q: What about the viability, T/C (second compound 0.1 µM, first compound 0.000316 µM) of the same molecule?
A: 96.3%

Q: And the viability, T/C (second compound 0.1 µM, first compound 0.001 µM)?
A: 90.2%

Q: What about the viability, T/C (second compound 0.1 µM, first compound 0.00316 µM) of the same molecule?
A: 96.8%

Q: And the viability, T/C (second compound 0.1 µM, first compound 0.01 µM)?
A: 73.7%

Q: And the viability, T/C [7]?
A: 90.5%

Q: What about the viability, T/C [8] of the same molecule?
A: 85.1%

Q: And the viability, T/C (second compound 0.316 µM, first compound 0.000316 µM)?
A: 132%

Q: And the viability, T/C (second compound 0.316 µM, first compound 0.001 µM)?
A: 102%

Q: And the viability, T/C (second compound 0.316 µM, first compound 0.00316 µM)?
A: 86.9%

Q: What about the viability, T/C (second compound 0.316 µM, first compound 0.01 µM) of the same molecule?
A: 99.3%

Q: What about the viability, T/C [13] of the same molecule?
A: 74.8%

Q: And the viability, T/C [14]?
A: 97.3%

Q: What about the viability, T/C (second compound 1 µM, first compound 0.000316 µM) of the same molecule?
A: 112%

Q: And the viability, T/C (second compound 1 µM, first compound 0.001 µM)?
A: 104%

Q: And the viability, T/C (second compound 1 µM, first compound 0.00316 µM)?
A: 97.6%

Q: And the viability, T/C (second compound 1 µM, first compound 0.01 µM)?
A: 84%

Q: What about the viability, T/C [19] of the same molecule?
A: 91.6%

Q: And the viability, T/C [20]?
A: 104%

Q: What about the viability, T/C (second compound 3.16 µM, first compound 0.000316 µM) of the same molecule?
A: 91.6%

Q: And the viability, T/C (second compound 3.16 µM, first compound 0.001 µM)?
A: 99.1%

Q: And the viability, T/C (second compound 3.16 µM, first compound 0.00316 µM)?
A: 76.3%

Q: And the viability, T/C (second compound 3.16 µM, first compound 0.01 µM)?
A: 95.8%

Q: What about the viability, T/C [25] of the same molecule?
A: 75.3%

Q: What about the viability, T/C [26] of the same molecule?
A: 83.7%

Q: What about the viability, T/C (second compound 10 µM, first compound 0.000316 µM) of the same molecule?
A: 60.7%

Q: And the viability, T/C (second compound 10 µM, first compound 0.001 µM)?
A: 85.5%

Q: And the viability, T/C (second compound 10 µM, first compound 0.00316 µM)?
A: 80%

Q: What about the viability, T/C (second compound 10 µM, first compound 0.01 µM) of the same molecule?
A: 59.6%

Q: What about the viability, T/C [31] of the same molecule?
A: 74.4%

Q: What about the viability, T/C [32] of the same molecule?
A: 74.4%
